Results reported in the supplement of paper PMC11061612.

Assays:
SF539 (Glioblastoma) = experiment: Bliss excess, mean over the matrix (fraction); higher = more synergy
Outline: (§1)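 Bliss excess equals the observed combination effect minus the expected value EA + EB − EA·EB, where EA and EB are the effects of each agent alone. Combination Emax is the second-highest inhibition within the matrix. Inhibition was scaled from CellTiter-Glo 2.0 luminescence, with 0 set by vehicle wells and 1 by blank wells, after 72 hours of two-drug dosing of cells plated in 1536-well plates.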

[1] = tested on: PANC-03-27 (Pancreatic Carcinoma); experiment: as above
Outline: as §1

[2] = tested on: RKN (Other Solid Carcinomas); experiment: as above
Outline: as §1

[3] = tested on: TE-8 (Esophageal Squamous Cell Carcinoma); experiment: combination Emax (second highest fraction inhibited in the dose matrix, 72 h); higher = more inhibition; extreme values may be limits of the assay
Outline: as §1

[4] = tested on: SHP-77 (Small Cell Lung Carcinoma); experiment: as above
Outline: as §1

WM278 (Melanoma) = experiment: as above
Outline: as §1

[5] = tested on: COLO-680N (Esophageal Squamous Cell Carcinoma); experiment: as above
Outline: as §1

[6] = tested on: 23132-87 (Gastric Carcinoma); experiment: as above
Outline: as §1

IST-MES1 (Mesothelioma) = experiment: as above
Outline: as §1

WM793B (Melanoma) = experiment: as above
Outline: as §1

[7] = tested on: CAL-120 (Breast Carcinoma); experiment: as above
Outline: as §1

[8] = tested on: CAL-62 (Thyroid Gland Carcinoma); experiment: as above
Outline: as §1

[9] = tested on: OVMIU (Ovarian Carcinoma); experiment: as above
Outline: as §1

[10] = tested on: REH (B-Lymphoblastic Leukemia); experiment: as above
Outline: as §1

[11] = tested on: RKN (Other Solid Carcinomas); experiment: as above
Outline: as §1

[12] = tested on: SU-DHL-10 (B-Cell Non-Hodgkin's Lymphoma); experiment: as above
Outline: as §1

[13] = tested on: RERF-LC-Sq1 (Squamous Cell Lung Carcinoma); experiment: as above
Outline: as §1

[14] = tested on: MFE-280 (Endometrial Carcinoma); experiment: as above
Outline: as §1

[15] = tested on: MKN45 (Gastric Carcinoma); experiment: as above
Outline: as §1

A2058 (Melanoma) = experiment: as above
Outline: as §1

Row | Structure (SMILES) | Bliss excess (SF539 (Glioblastoma)) | Bliss excess [1] | Bliss excess [2] | combination Emax [3] | combination Emax [4] | combination Emax (WM278 (Melanoma)) | combination Emax [5] | combination Emax [6] | combination Emax (IST-MES1 (Mesothelioma)) | combination Emax (WM793B (Melanoma)) | combination Emax [7] | combination Emax [8] | combination Emax [9] | combination Emax [10] | combination Emax [11] | combination Emax [12] | combination Emax [13] | combination Emax [14] | combination Emax [15] | combination Emax (A2058 (Melanoma))
1 | COc1nnc2ccc(N3CCC(c4ccc(OCCN5CCN(C)C(=O)[C@H]5C)cc4)CC3)nn12 [AZD5153] + C[C@@H]1COCCN1C2=NC(=NC(=C2)C3(CC3)[S@](=N)(=O)C)C4=C5C=CNC5=NC=C4 [AZD6738] (first compound max 1 µM, 7x7, partner max 10 µM) | 0.0418 | -0.091 | -0.0757 | 0.617 | 0.821 | 0.671 | 0.383 | 0.594 | 0.644 | 0.827 | 0.589 | 0.895 | 0.795 | 0.96 | 0.562 | 1 | 0.801 | 0.425 | 0.782 | 0.908
2 | COc1nnc2ccc(N3CCC(c4ccc(OCCN5CCN(C)C(=O)[C@H]5C)cc4)CC3)nn12 [AZD5153] + Cc1c2c(nn1C)CSCc1cc(n(C)n1)CSc1cc(c3ccccc3c1)OCCCc1c(C(=O)O)n(C)c3c-2c(Cl)ccc13 [AZD5991] (first compound max 1 µM, 7x7, partner max 1 µM) | -0.0273 | -0.0183 | -0.0692 | 0.705 | 0.544 | 0.484 | 0.37 | 0.87 | 0.96 | 0.688 | 0.403 | 0.795 | 0.813 | 0.965 | 0.495 | 1 | 0.602 | 0.45 | 0.497 | 0.975
3 | COc1nnc2ccc(N3CCC(c4ccc(OCCN5CCN(C)C(=O)[C@H]5C)cc4)CC3)nn12 [AZD5153] + Cn1cnc2c(F)c(Nc3ccc(Br)cc3Cl)c(C(=O)NOCCO)cc21 [Selumetinib] (first compound max 1 µM, 7x7, partner max 10 µM) | -0.0255 | 0.0131 | -0.0073 | 0.575 | 0.424 | 0.799 | 0.378 | 0.2 | 0.641 | 0.786 | 0.479 | 0.844 | 0.737 | 0.469 | 0.577 | 1 | 0.79 | 0.361 | 0.744 | 0.842
4 | Cc1c2c(nn1C)CSCc1cc(n(C)n1)CSc1cc(c3ccccc3c1)OCCCc1c(C(=O)O)n(C)c3c-2c(Cl)ccc13 [AZD5991] + C1CN(CCC1(C(=O)N[C@@H](CCO)C2=CC=C(C=C2)Cl)N)C3=NC=NC4=C3C=CN4 [Capivasertib] (first compound max 1 µM, 7x7, partner max 3 µM) | -0.0043 | 0.002 | -0.0234 | 0.523 | 0.263 | 0.266 | 0.139 | 0.934 | 0.138 | 0.31 | 0.256 | 0.152 | 0.353 | 0.849 | 0.173 | 1 | 0.757 | 0.461 | 0.467 | 0.908
5 | Cc1c2c(nn1C)CSCc1cc(n(C)n1)CSc1cc(c3ccccc3c1)OCCCc1c(C(=O)O)n(C)c3c-2c(Cl)ccc13 [AZD5991] + C=CCn1c(=O)c2cnc(Nc3ccc(N4CCN(C)CC4)cc3)nc2n1-c1cccc(C(C)(C)O)n1 [AZD1775] (first compound max 1 µM, partner max 1 µM) | -0.0239 | 0.0186 | -0.0446 | 0.818 | 0.461 | 0.463 | 0.287 | 0.96 | 0.31 | 0.582 | 0.405 | 0.766 | 0.635 | 0.877 | 0.223 | 1 | 0.785 | 0.469 | 0.826 | 0.892
6 | Cc1c2c(nn1C)CSCc1cc(n(C)n1)CSc1cc(c3ccccc3c1)OCCCc1c(C(=O)O)n(C)c3c-2c(Cl)ccc13 [AZD5991] + CC1(C)CCC(CN2CCN(c3ccc(C(=O)NS(=O)(=O)c4ccc(NCC5CCOCC5)c([N+](=O)[O-])c4)c(Oc4cnc5[nH]ccc5c4)c3)CC2)=C(c2ccc(Cl)cc2)C1 [Venetoclax] (first compound max 1 µM, 7x7, partner max 1 µM) | 0.0187 | -0.0397 | -0.0337 | 0.403 | 0.753 | 0.291 | 0.0971 | 0.903 | 0.116 | 0.261 | 0.121 | 0.148 | 0.318 | 1 | 0.146 | 1 | 0.282 | 0.193 | 0.168 | 0.914
7 | Cc1c2c(nn1C)CSCc1cc(n(C)n1)CSc1cc(c3ccccc3c1)OCCCc1c(C(=O)O)n(C)c3c-2c(Cl)ccc13 [AZD5991] + CCN(CCO)CCCOc1ccc2c(Nc3cc(CC(=O)Nc4cccc(F)c4)[nH]n3)ncnc2c1 [AZD2811] (first compound max 1 µM, 7x7, partner max 1 µM) | 0.0184 | 0.0566 | -0.0015 | 0.529 | 0.289 | 0.396 | 0.211 | 0.924 | 0.266 | 0.374 | 0.21 | 0.237 | 0.283 | 0.931 | 0.185 | 1 | 0.622 | 0.482 | 0.408 | 0.919
8 | Cc1c2c(nn1C)CSCc1cc(n(C)n1)CSc1cc(c3ccccc3c1)OCCCc1c(C(=O)O)n(C)c3c-2c(Cl)ccc13 [AZD5991] + CN(C)CCCOc1ccc(-c2ccc3ncc4c(c3c2)n(C2CCOCC2)c(=O)n4C)cn1 [AZD0156] (first compound max 1 µM, 7x7, partner max 1 µM) | -0.0184 | -0.0201 | 0.0006 | 0.379 | 0.284 | 0.248 | 0.219 | 0.934 | 0.191 | 0.305 | 0.171 | 0.218 | 0.359 | 0.694 | 0.173 | 1 | 0.364 | 0.38 | 0.356 | 0.465
9 | Cc1c2c(nn1C)CSCc1cc(n(C)n1)CSc1cc(c3ccccc3c1)OCCCc1c(C(=O)O)n(C)c3c-2c(Cl)ccc13 [AZD5991] + C[C@@H]1COCCN1C2=NC(=NC(=C2)C3(CC3)[S@](=N)(=O)C)C4=C5C=CNC5=NC=C4 [AZD6738] (first compound max 1 µM, 7x7, partner max 10 µM) | -0.0231 | 0.0059 | 0.0098 | 0.751 | 0.594 | 0.562 | 0.324 | 0.979 | 0.285 | 0.834 | 0.413 | 0.806 | 0.483 | 0.945 | 0.215 | 1 | 0.853 | 0.384 | 0.807 | 0.925
10 | Cc1c2c(nn1C)CSCc1cc(n(C)n1)CSc1cc(c3ccccc3c1)OCCCc1c(C(=O)O)n(C)c3c-2c(Cl)ccc13 [AZD5991] + C[C@@H](Nc1cc(F)cc(F)c1)c1cc(C(=O)N(C)C)cc2c(=O)cc(N3CCOCC3)oc12 [AZD8186] (first compound max 1 µM, 7x7, partner max 3 µM) | -0.0052 | -0.0432 | -0.0269 | 0.373 | 0.289 | 0.365 | 0.215 | 0.867 | 0.241 | 0.419 | 0.218 | 0.206 | 0.447 | 0.776 | 0.289 | 1 | 0.228 | 0.465 | 0.39 | 0.821
11 | Cc1c2c(nn1C)CSCc1cc(n(C)n1)CSc1cc(c3ccccc3c1)OCCCc1c(C(=O)O)n(C)c3c-2c(Cl)ccc13 [AZD5991] + Cc1cc2ncnn2cc1Nc1ncc2c(n1)n(C1CCOCC1)c(=O)n2C [AZD7648] (first compound max 1 µM, 7x7, partner max 10 µM) | 0.0057 | -0.0286 | -0.0151 | 0.427 | 0.263 | 0.285 | 0.19 | 0.887 | 0.249 | 0.32 | 0.252 | 0.439 | 0.547 | 0.8 | 0.219 | 1 | 0.37 | 0.437 | 0.504 | 0.452
12 | Cc1c2c(nn1C)CSCc1cc(n(C)n1)CSc1cc(c3ccccc3c1)OCCCc1c(C(=O)O)n(C)c3c-2c(Cl)ccc13 [AZD5991] + Cn1cnc2c(F)c(Nc3ccc(Br)cc3Cl)c(C(=O)NOCCO)cc21 [Selumetinib] (first compound max 1 µM, 7x7, partner max 3 µM) | -0.0344 | -0.0414 | -0.0147 | 0.415 | 0.598 | 0.648 | 0.236 | 0.903 | 0.257 | 0.454 | 0.167 | 0.354 | 0.383 | 0.732 | 0.292 | 1 | 0.479 | 0.278 | 0.508 | 0.991
13 | C[C@@H]1COCCN1c1cc(C2([S@](C)(=N)=O)CC2)nc(-c2ccnc3[nH]ccc23)n1 [AZD6738] + O=C(c1cc(Cc2n[nH]c(=O)c3ccccc23)ccc1F)N1CCN(C(=O)C2CC2)CC1 [Olaparib] (first compound max 10 µM, 7x7, partner max 10 µM) | -0.0047 | 0.0141 | -0.007 | 0.757 | 0.754 | 0.233 | 0.392 | 0.768 | 0.353 | 0.822 | 0.386 | 0.899 | 0.429 | 0.917 | 0.228 | 0.944 | 0.75 | 0.403 | 0.763 | 0.205
